Experimental data published in patent US12371428B2 (Exelixis, Inc., priority 2019, dated 2025).

Tests used:
[1] = target: Human KDR (residues 790-1356) (Homo sapiens (Human), UniProt P35968); assay: Human KDR kinase assay, HTRF KinEase (Example B-2); assay type: biochemical; conditions: protocol of Example B-2 (other compounds)
In short: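 Human KDR residues 790-1356 (0.1 ng/well) in buffer with 5 mM MgCl2, 1 mM MnCl2, 1 mM DTT, biotinylated peptide substrate, ATP at Km (4.0 μM), 3% DMSO, 10 compound concentrations; 40 min, room temperature. EDTA stop, streptavidin-XL665/Eu-TK antibody HTRF read 665/620 nm; 4-parameter IC50.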

[2] = target: Mer (phospho-Mer, MERTK-transfected 293A cells) (Homo sapiens (Human), UniProt Q12866); assay: Mer autophosphorylation ELISA in transient transfected 293A cells (Example H); assay type: cell-based; conditions: cellular activity; Mer autophosphorylation ELISA in transient transfected 293A cells
In short: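 293A cells transiently transfected with human MERTK were treated 1 h in serum-free medium with an 8-point compound dilution (0.3% DMSO final). Lysates were assayed by phospho-Mer sandwich ELISA against a phospho-Mer standard; IC50 came from a 4-parameter logistic fit, normalised to DMSO (100%) and reference-inhibitor (0%) controls.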

[3] = target: Human MER (residues 528-999) (Homo sapiens (Human), UniProt Q12866); assay: Human Mer kinase assay, HTRF KinEase (Example C-2); assay type: biochemical; conditions: protocol of Example C-2 (other compounds)
In short: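 Recombinant MER 528-999 (1 ng/well) in buffer with 5 mM MgCl2 and 1 mM DTT was reacted with biotinylated peptide and ATP at Km (40 μM) for 60 min at room temperature. EDTA stop with SA-XL665 and Eu3+ TK antibody, then 665/620 nm HTRF read; IC50 from 4-parameter fit.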

[4] = target: Human MET (residues 956-1390) (Homo sapiens (Human), UniProt P08581); assay: Human Met kinase assay, HTRF KinEase (Example D-2); assay type: biochemical; conditions: protocol of Example D-2 (other compounds); read-out: c-Met IC50
In short: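 MET kinase domain (956-1390), 0.1 ng/well, in buffer with 5 mM MgCl2, 1 mM DTT and 1 mM MnCl2, phosphorylated a biotinylated peptide at ATP Km for 40 min at RT; 10 concentrations, 3% DMSO final. EDTA-stopped HTRF read after 60 min; IC50 from a 4-parameter logistic fit.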

Sequence of Human KDR (residues 790-1356) (P35968 790-1356): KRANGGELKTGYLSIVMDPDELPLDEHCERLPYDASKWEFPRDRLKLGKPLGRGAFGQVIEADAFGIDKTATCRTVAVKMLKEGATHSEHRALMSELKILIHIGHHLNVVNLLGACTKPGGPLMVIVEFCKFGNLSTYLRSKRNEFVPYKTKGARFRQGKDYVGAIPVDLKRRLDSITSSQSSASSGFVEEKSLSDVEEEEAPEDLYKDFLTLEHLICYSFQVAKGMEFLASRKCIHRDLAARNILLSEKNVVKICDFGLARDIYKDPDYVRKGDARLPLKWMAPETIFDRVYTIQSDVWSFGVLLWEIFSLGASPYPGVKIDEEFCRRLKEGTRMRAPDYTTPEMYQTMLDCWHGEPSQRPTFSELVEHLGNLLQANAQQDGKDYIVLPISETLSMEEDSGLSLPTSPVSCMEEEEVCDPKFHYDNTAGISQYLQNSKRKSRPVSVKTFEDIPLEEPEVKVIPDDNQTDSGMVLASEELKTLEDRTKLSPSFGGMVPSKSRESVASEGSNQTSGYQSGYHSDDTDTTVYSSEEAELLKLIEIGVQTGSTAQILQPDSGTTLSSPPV
Sequence of Human MER (residues 528-999) (Q12866 528-999): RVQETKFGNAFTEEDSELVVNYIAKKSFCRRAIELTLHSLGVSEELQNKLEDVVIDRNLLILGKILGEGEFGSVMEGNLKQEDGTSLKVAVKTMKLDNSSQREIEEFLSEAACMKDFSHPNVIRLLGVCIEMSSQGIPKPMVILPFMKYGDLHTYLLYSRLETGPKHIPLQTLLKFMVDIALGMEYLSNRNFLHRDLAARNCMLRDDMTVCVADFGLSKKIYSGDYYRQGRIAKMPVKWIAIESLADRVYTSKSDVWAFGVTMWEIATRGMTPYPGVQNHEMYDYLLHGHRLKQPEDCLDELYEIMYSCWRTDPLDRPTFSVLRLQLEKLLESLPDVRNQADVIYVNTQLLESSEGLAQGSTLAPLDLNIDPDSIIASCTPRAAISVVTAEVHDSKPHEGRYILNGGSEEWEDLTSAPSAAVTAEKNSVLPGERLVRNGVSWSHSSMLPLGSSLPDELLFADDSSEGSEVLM
Sequence of Mer (phospho-Mer, MERTK-transfected 293A cells) (Q12866 21-999): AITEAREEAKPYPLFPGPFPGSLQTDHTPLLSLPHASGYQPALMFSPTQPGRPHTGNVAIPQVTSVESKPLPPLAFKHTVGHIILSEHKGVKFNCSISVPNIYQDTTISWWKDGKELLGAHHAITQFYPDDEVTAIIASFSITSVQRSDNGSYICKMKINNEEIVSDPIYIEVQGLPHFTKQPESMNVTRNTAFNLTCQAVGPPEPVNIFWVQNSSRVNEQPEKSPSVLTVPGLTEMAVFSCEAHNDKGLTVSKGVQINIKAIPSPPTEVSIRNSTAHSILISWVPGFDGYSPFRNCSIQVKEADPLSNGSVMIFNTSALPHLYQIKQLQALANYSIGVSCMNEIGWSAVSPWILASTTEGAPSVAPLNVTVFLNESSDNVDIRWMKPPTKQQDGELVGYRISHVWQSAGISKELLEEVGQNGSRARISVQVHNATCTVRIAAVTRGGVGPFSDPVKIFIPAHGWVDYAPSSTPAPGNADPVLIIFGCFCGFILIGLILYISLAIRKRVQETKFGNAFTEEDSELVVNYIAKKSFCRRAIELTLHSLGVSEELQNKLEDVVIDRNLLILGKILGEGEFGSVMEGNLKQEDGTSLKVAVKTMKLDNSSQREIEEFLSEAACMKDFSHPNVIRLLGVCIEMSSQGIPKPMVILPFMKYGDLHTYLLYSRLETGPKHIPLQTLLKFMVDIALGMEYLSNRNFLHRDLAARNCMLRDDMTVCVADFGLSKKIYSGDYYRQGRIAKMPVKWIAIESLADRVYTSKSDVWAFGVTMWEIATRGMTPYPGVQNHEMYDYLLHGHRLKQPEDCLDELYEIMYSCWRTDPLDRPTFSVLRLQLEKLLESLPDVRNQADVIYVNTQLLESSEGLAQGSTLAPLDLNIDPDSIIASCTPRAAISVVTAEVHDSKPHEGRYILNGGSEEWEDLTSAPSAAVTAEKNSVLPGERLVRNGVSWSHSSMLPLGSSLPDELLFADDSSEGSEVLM
Sequence of Human MET (residues 956-1390) (P08581 956-1390): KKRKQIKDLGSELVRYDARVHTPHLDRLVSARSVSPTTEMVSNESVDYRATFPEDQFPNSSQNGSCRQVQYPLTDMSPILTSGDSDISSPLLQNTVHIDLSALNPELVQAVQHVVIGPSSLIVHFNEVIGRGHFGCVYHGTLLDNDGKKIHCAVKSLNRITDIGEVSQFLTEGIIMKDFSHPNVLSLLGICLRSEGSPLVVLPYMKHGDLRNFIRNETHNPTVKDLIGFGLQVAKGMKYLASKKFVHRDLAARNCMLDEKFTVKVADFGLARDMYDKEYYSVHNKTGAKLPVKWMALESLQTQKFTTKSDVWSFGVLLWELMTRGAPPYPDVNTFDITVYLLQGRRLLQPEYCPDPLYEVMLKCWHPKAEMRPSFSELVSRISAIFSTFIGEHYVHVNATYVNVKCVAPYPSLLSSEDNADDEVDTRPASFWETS

Work on `CCn1cc(C(=O)Nc2ccc(Oc3ccnc4cc(OC)cnc34)cc2)c(=O)c(-c2ccc(F)cc2)c1CO` [Compound 274, 1-Ethyl-5-(4-fluorophenyl)-6-(hydroxymethyl)-N-[4-[(7-methoxy-1,5-naphthyridin-4-yl)oxy]phenyl]-4-oxopyridine-3-carboxamide] yielded an IC50 [1] of over 300 nM, an IC50 [2] of under 100 nM and an IC50 [3] of under 100 nM. It also gave an IC50 [4] of under 100 nM.
Work on `COc1cnc2c(Oc3ccc(NC(=O)c4cccn(-c5ccc(F)cc5)c4=O)cc3F)ccnc2c1` [Compound 291, N-[3-Fluoro-4-[(7-methoxy-1,5-naphthyridin-4-yl)oxy]phenyl]-1-(4-fluorophenyl)-2-oxopyridine-3-carboxamide] yielded an IC50 [1] of over 300 nM, an IC50 [2] of under 100 nM and an IC50 [3] of under 100 nM. It also gave an IC50 [4] of under 100 nM.
With `COc1cc2nccc(Oc3ccc(NC(=O)c4nccn(-c5ccc(F)cc5)c4=O)cc3)c2nc1OC` [Compound 384, N-[4-[(6,7-dimethoxy-1,5-naphthyridin-4-yl)oxy]phenyl]-4-(4-fluorophenyl)-3-oxopyrazine-2-carboxamide] the IC50 [1] was 100 to 300 nM, the IC50 [2] was under 100 nM and the IC50 [3] was under 100 nM. It also gave an IC50 [4] of under 100 nM.
Work on `COc1cc2nccc(Oc3ccc(NC(=O)c4c(C)cc(C)n(-c5ccc(F)cc5)c4=O)cc3F)c2nc1OC` [Compound 279, N-[4-[(6,7-Dimethoxy-1,5-naphthyridin-4-yl)oxy]-3-fluorophenyl]-1-(4-fluorophenyl)-4,6-dimethyl-2-oxopyridine-3-carboxamide] yielded an IC50 [1] of under 100 nM, an IC50 [2] of under 100 nM and an IC50 [3] of under 100 nM. For the same molecule, the IC50 [4] was under 100 nM.
With `COc1ccc2nccc(Oc3ccc(NC(=O)c4ccc(C)n(-c5ccc(F)cc5C)c4=O)cc3)c2n1` [Compound 276, 1-(4-Fluoro-2-methylphenyl)-N-[4-[(6-methoxy-1,5-naphthyridin-4-yl)oxy]phenyl]-6-methyl-2-oxopyridine-3-carboxamide] the IC50 [1] was over 300 nM, the IC50 [2] was under 100 nM and the IC50 [3] was under 100 nM. It also gave an IC50 [4] of 100 to 300 nM.
Work on `COc1ccc2nccc(Oc3ccc(NC(=O)c4c(C)cc(C)n(-c5ccc(F)cc5C)c4=O)cc3F)c2n1` [Compound 296, N-[3-Fluoro-4-[(6-methoxy-1,5-naphthyridin-4-yl)oxy]phenyl]-1-(4-fluoro-2-methylphenyl)-4,6-dimethyl-2-oxopyridine-3-carboxamide] yielded an IC50 [1] of 100 to 300 nM, an IC50 [2] of under 100 nM and an IC50 [3] of under 100 nM. The IC50 [4] was 100 to 300 nM.
In the case of `COc1cc2nccc(Oc3c(F)cc(NC(=O)c4cn(C)c(C)c(-c5ccc(F)cc5)c4=O)cc3F)c2nc1OC` [Compound 392, N-[4-[(6,7-dimethoxy-1,5-naphthyridin-4-yl)oxy]-3,5-difluorophenyl]-5-(4-fluorophenyl)-1,6-dimethyl-4-oxopyridine-3-carboxamide], the IC50 [1] is reported as over 300 nM, the IC50 [2] is reported as under 100 nM and the IC50 [3] is reported as under 100 nM. The IC50 [4] was under 100 nM.
`COc1cc2nccc(Oc3ccc(NC(=O)c4ncc(C)n(-c5ccc(F)cc5C)c4=O)cc3F)c2nc1OC` [Compound 393, N-[4-[(6,7-dimethoxy-1,5-naphthyridin-4-yl)oxy]-3-fluorophenyl]-4-(4-fluoro-2-methylphenyl)-5-methyl-3-oxopyrazine-2-carboxamide] gave an IC50 [1] of under 100 nM, an IC50 [2] of under 100 nM and an IC50 [3] of under 100 nM. It also gave an IC50 [4] of under 100 nM.
`COc1cc2nccc(Oc3ccc(NC(=O)c4c(C)ccn(-c5ccc(F)cc5)c4=O)cc3)c2nc1OC` [Compound 299, N-[4-[(6,7-Dimethoxy-1,5-naphthyridin-4-yl)oxy]phenyl]-1-(4-fluorophenyl)-4-methyl-2-oxopyridine-3-carboxamide] gave an IC50 [1] of under 100 nM, an IC50 [2] of under 100 nM and an IC50 [3] of under 100 nM. It also gave an IC50 [4] of under 100 nM.
Work on `C=C(C)c1cc(C(=O)Nc2ccc(Oc3ccnc4cc(OC)c(OC)nc34)c(F)c2)c(=O)n(-c2ccc(F)cc2)c1C` [Compound 367, N-[4-[(6,7-dimethoxy-1,5-naphthyridin-4-yl)oxy]-3-fluorophenyl]-1-(4-fluorophenyl)-6-methyl-2-oxo-5-prop-1-en-2-ylpyridine-3-carboxamide] yielded an IC50 [1] of over 300 nM, an IC50 [2] of under 100 nM and an IC50 [3] of under 100 nM. It also gave an IC50 [4] of 100 to 300 nM.
`COc1cc2nccc(Oc3ccc(NC(=O)c4cc(C)c(C)n(-c5ccc(F)cc5)c4=O)cc3F)c2nc1OC` [Compound 370, N-[4-[(6,7-dimethoxy-1,5-naphthyridin-4-yl)oxy]-3-fluorophenyl]-1-(4-fluorophenyl)-5,6-dimethyl-2-oxopyridine-3-carboxamide] showed an IC50 [1] of under 100 nM, an IC50 [2] of under 100 nM and an IC50 [3] of under 100 nM. For the same molecule, the IC50 [4] was under 100 nM.
For `COc1ccc2nccc(Oc3ccc(NC(=O)c4ccc(C)n(-c5ccc(F)cc5)c4=O)cc3)c2n1` [Compound 343, 1-(4-fluorophenyl)-N-[4-[(6-methoxy-1,5-naphthyridin-4-yl)oxy]phenyl]-6-methyl-2-oxopyridine-3-carboxamide], the IC50 [1] was 100 to 300 nM, the IC50 [2] was under 100 nM and the IC50 [3] was under 100 nM. The IC50 [4] was under 100 nM.
In the case of `Cc1nc(C)n(-c2ccc(F)cc2)c(=O)c1C(=O)Nc1ccc(Oc2ccnc3cc(OCc4ccccc4)cnc23)c(F)c1` [Compound 278, 1-(4-Fluorophenyl)-N-[3-fluoro-4-[(7-phenylmethoxy-1,5-naphthyridin-4-yl)oxy]phenyl]-2,4-dimethyl-6-oxopyrimidine-5-carboxamide], the IC50 [1] is reported as under 100 nM, the IC50 [2] is reported as under 100 nM and the IC50 [3] is reported as under 100 nM. The IC50 [4] was under 100 nM.
Work on `COCc1c(-c2ccc(F)cc2)c(=O)c(C(=O)Nc2ccc(Oc3ccnc4cc(OC)c(OC)nc34)c(F)c2)cn1C` [Compound 269, N-[4-[(6,7-Dimethoxy-1,5-naphthyridin-4-yl)oxy]-3-fluorophenyl]-5-(4-fluorophenyl)-6-(methoxymethyl)-1-methyl-4-oxopyridine-3-carboxamide] yielded an IC50 [1] of over 300 nM, an IC50 [2] of under 100 nM and an IC50 [3] of under 100 nM. It also gave an IC50 [4] of under 100 nM.
Molecule `COc1cnc2c(Oc3ccc(NC(=O)c4c(C)cc(C)n(-c5ccc(F)cc5)c4=O)cc3)ccnc2c1` [Compound 289, 1-(4-Fluorophenyl)-N-[4-[(7-methoxy-1,5-naphthyridin-4-yl)oxy]phenyl]-4,6-dimethyl-2-oxopyridine-3-carboxamide] has an IC50 [1] of under 100 nM, an IC50 [2] of under 100 nM and an IC50 [3] of under 100 nM. The IC50 [4] was under 100 nM.
`COc1ccc2nccc(Oc3ccc(NC(=O)c4ncc(C)n(-c5ccc(F)cc5)c4=O)cc3)c2n1` [Compound 378, 4-(4-fluorophenyl)-N-[4-[(6-methoxy-1,5-naphthyridin-4-yl)oxy]phenyl]-5-methyl-3-oxopyrazine-2-carboxamide] gave an IC50 [1] of over 300 nM, an IC50 [2] of under 100 nM and an IC50 [3] of under 100 nM. The IC50 [4] was under 100 nM.
For `COc1cc2nccc(Oc3ccc(NC(=O)c4c(C)ccn(-c5ccc(F)cc5)c4=O)cc3F)c2nc1OC` [Compound 286, N-[4-[(6,7-Dimethoxy-1,5-naphthyridin-4-yl)oxy]-3-fluorophenyl]-1-(4-fluorophenyl)-4-methyl-2-oxopyridine-3-carboxamide], the IC50 [1] was under 100 nM, the IC50 [2] was under 100 nM and the IC50 [3] was under 100 nM. The IC50 [4] was under 100 nM.
`COc1ccc2nccc(Oc3ccc(NC(=O)c4c(C)nc(C)c(-c5ccc(F)cc5)c4O)cc3)c2n1` [Compound 340, 5-(4-fluorophenyl)-4-hydroxy-N-[4-[(6-methoxy-1,5-naphthyridin-4-yl)oxy]phenyl]-2,6-dimethylpyridine-3-carboxamide] showed an IC50 [1] of under 100 nM, an IC50 [2] of under 100 nM and an IC50 [3] of under 100 nM. It also gave an IC50 [4] of under 100 nM.
For `COc1ccc2nccc(Oc3ccc(NC(=O)c4ncc(C)n(-c5ccc(F)cc5)c4=O)cc3F)c2n1` [Compound 264, N-[3-Fluoro-4-[(6-methoxy-1,5-naphthyridin-4-yl)oxy]phenyl]-4-(4-fluorophenyl)-5-methyl-3-oxopyrazine-2-carboxamide], the IC50 [1] was over 300 nM, the IC50 [2] was under 100 nM and the IC50 [3] was under 100 nM. The IC50 [4] was under 100 nM.
For `CCn1cc(C(=O)Nc2ccc(Oc3ccnc4cc(OC)c(OC)nc34)c(F)c2)c(=O)c(-c2ccc(F)cc2)c1CO` [Compound 271, N-[4-[(6,7-Dimethoxy-1,5-naphthyridin-4-yl)oxy]-3-fluorophenyl]-1-ethyl-5-(4-fluorophenyl)-6-(hydroxymethyl)-4-oxopyridine-3-carboxamide], the IC50 [1] was under 100 nM, the IC50 [2] was under 100 nM and the IC50 [3] was under 100 nM. The IC50 [4] was under 100 nM.
With `COc1cc2nccc(Oc3ccc(NC(=O)c4cn(C)c(CO)c(-c5ccc(F)cc5C)c4=O)cc3F)c2nc1OC` [Compound 282, N-[4-[(6,7-Dimethoxy-1,5-naphthyridin-4-yl)oxy]-3-fluorophenyl]-5-(4-fluoro-2-methylphenyl)-6-(hydroxymethyl)-1-methyl-4-oxopyridine-3-carboxamide] the IC50 [1] was over 300 nM, the IC50 [2] was under 100 nM and the IC50 [3] was under 100 nM. For the same molecule, the IC50 [4] was under 100 nM.
